US20020137929A1, “1 - (3-heterocyclylphenyl) isothiourea, -isourea, -guanidine and -amidine herbicidal agents” (Intellectual Property Department, BASF Aktiengesellschaft, priority 1998, published 2002)

Key:
CYPSE (Flatsedge) [1] = assay: Preemergence weed control under flooded paddy conditions; type: in vivo, Cyperus serotinus; settings: rated 3-4 weeks after treatment
In short: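 Silt loam, seeds in top 0.5 cm; flood held 1.5-3 cm; test cpd as acetone/water 50/50 into flood water, ~0.0313-0.500 kg/ha a.i.; greenhouse 3-4 wk; visual 0-9 score vs control.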

[2] = tested on: ECHORC (Watergrass (Calif.)); assay: Postemergence weed control under flooded paddy conditions; type: in vivo, Echinochloa oryzoides; settings: postemergence weeds, 3-4 weeks after treatment
In short: (§1)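 Flood-water application, about 0.0313–0.500 kg/ha a.i. in aqueous/acetone 50/50 v/v; water depth 1.5–3 cm throughout. Weeds 3–5 cm, rice 1.5–2.5 leaf. Greenhouse; 0–9 visual rating vs control at 3–4 wk.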

[3] = tested on: TRZAWR (Wheat, Winter, cv Riband); assay: Preemergence herbicidal evaluation; type: in vivo, Triticum aestivum; settings: rated 4-5 weeks after treatment
In short: (§2)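 Herbicidal effect scored visually, 0-9, at 4 to 5 weeks against a control; compound applied preemergence by aqueous acetone spray to seeded soil at about 0.0156 to 0.500 kg/ha.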

GALAP (Galium) = assay: Postemergence herbicidal evaluation; type: in vivo, Galium aparine
In short: (§3)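 Two-week seedlings sprayed postemergence at 40 psi; formulation: 1:1 acetone/water, 0.5% TWEEN 20; application ≈0.0156–0.500 kg/ha. Greenhouse grow-out, then 0–9 visual scoring at 4–5 weeks.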

AMBEL (Ragweed, Common) = assay: Preemergence herbicidal evaluation; type: in vivo, Ambrosia artemisifolia; settings: rated 4-5 weeks after treatment
In short: as §2

ZEAMX (Corn, Field) [4] = assay: Postemergence herbicidal evaluation; type: in vivo, Zea mays
In short: as §3

CYPSE (Flatsedge) [5] = assay: Postemergence weed control under flooded paddy conditions; type: in vivo, Cyperus serotinus; settings: postemergence weeds, 3-4 weeks after treatment
In short: as §1

[6] = tested on: IPOHE (Morningglory, Ivyleaf); assay: Preemergence herbicidal evaluation; type: in vivo, Ipomoea hederacea; settings: rated 4-5 weeks after treatment
In short: as §2

CYPIR (Rice Flatsedge) = assay: Preemergence weed control under flooded paddy conditions; type: in vivo, Cyperus iria; settings: rated 3-4 weeks after treatment
In short: (§4)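 First, seeds or propagules go into the top 0.5 cm of silt loam; next, water is held 1.5 to 3 cm over the soil; then compound (50/50 acetone/water) is pipetted into it at about 0.0313 to 0.500 kg/ha; finally plants are rated visually 0-9 after three to four weeks.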

ZEAMX (Corn, Field) [7] = assay: Preemergence herbicidal evaluation; type: in vivo, Zea mays; settings: rated 4-5 weeks after treatment
In short: as §2

CASOB (Sicklepod) = assay: Postemergence herbicidal evaluation; type: in vivo, Cassia obtusifolia
In short: as §3

ORYSAT (Rice, Tebonnet) = assay: Preemergence herbicidal evaluation; type: in vivo, Oryza sativa, (L.) Tebonnet; settings: rated 4-5 weeks after treatment
In short: as §2

[8] = tested on: ECHORC (Watergrass (Calif.)); assay: Preemergence weed control under flooded paddy conditions; type: in vivo, Echinochloa oryzoides; settings: rated 3-4 weeks after treatment
In short: as §4

[9] = tested on: CHEAL (Lambsquarters, Common); assay: Preemergence herbicidal evaluation; type: in vivo, Chenopodium album; settings: rated 4-5 weeks after treatment
In short: as §2

CCOC(=O)CN1C(=O)C(CC(=O)O)O/C1=N/c1cc(-n2c(=O)cc(C(F)(F)F)n(C)c2=O)c(F)cc1Cl (centres unmarked) [Compound 41, 2-{{2-Chloro-5-[3,6-dihydro-3-methyl-2,6-dioxo-4-(trifluoromethyl)-1(2H)-pyrimidinyl]-4-fluoro-phenyl}imino}-4-oxo-3,5-oxazolidinediacetic acid, 3-ethyl ester]
Herbicidal rating CYPSE (CYPSE (Flatsedge) [1]; 0.0313 kg/ha): 0.0 | Herbicidal rating CYPSE (CYPSE (Flatsedge) [1]; 0.0625 kg/ha): 0.0 | Herbicidal rating CYPSE (CYPSE (Flatsedge) [1]; 0.1250 kg/ha): 2.0 | Herbicidal rating CYPSE (CYPSE (Flatsedge) [1]; 0.2500 kg/ha): 7.0 | Herbicidal rating ECHORC ([2]; rate 0.0313 kg/ha): 3.0 | Herbicidal rating ECHORC ([2]; rate 0.0625 kg/ha): 4.0 | Herbicidal rating ECHORC ([2]; rate 0.1250 kg/ha): 6.0 | Herbicidal rating ECHORC ([2]; rate 0.2500 kg/ha): 7.0 | Preemergence herbicidal rating TRZAWR ([3]; rate 0.0156 kg/ha): 0.0 | Preemergence herbicidal rating TRZAWR ([3]; rate 0.0313 kg/ha): 0.0 | Preemergence herbicidal rating TRZAWR ([3]; rate 0.0625 kg/ha): 0.0 | Preemergence herbicidal rating TRZAWR ([3]; rate 0.1250 kg/ha): 0.0 | Preemergence herbicidal rating TRZAWR ([3]; rate 0.2500 kg/ha): 0.0 | Postemergence herbicidal rating GALAP (GALAP (Galium); Rate 0.0158 kg/ha): 1.0 | Postemergence herbicidal rating GALAP (GALAP (Galium); Rate 0.0315 kg/ha): 2.0 | Postemergence herbicidal rating GALAP (GALAP (Galium); Rate 0.0630 kg/ha): 5.0 | Preemergence herbicidal rating AMBEL (AMBEL (Ragweed, Common); rate 0.0156 kg/ha): 0.0 | Preemergence herbicidal rating AMBEL (AMBEL (Ragweed, Common); rate 0.0313 kg/ha): 1.0 | Preemergence herbicidal rating AMBEL (AMBEL (Ragweed, Common); rate 0.0625 kg/ha): 2.0 | Preemergence herbicidal rating AMBEL (AMBEL (Ragweed, Common); rate 0.1250 kg/ha): 9.0 | Preemergence herbicidal rating AMBEL (AMBEL (Ragweed, Common); rate 0.2500 kg/ha): 8.0 | Postemergence herbicidal rating ZEAMX (ZEAMX (Corn, Field) [4]; Rate 0.0158 kg/ha): 7.0 | Postemergence herbicidal rating ZEAMX (ZEAMX (Corn, Field) [4]; Rate 0.0315 kg/ha): 8.0 | Postemergence herbicidal rating ZEAMX (ZEAMX (Corn, Field) [4]; Rate 0.0630 kg/ha): 7.5 | Herbicidal rating CYPSE (CYPSE (Flatsedge) [5]; rate 0.0313 kg/ha): 0.0 | Herbicidal rating CYPSE (CYPSE (Flatsedge) [5]; rate 0.0625 kg/ha): 0.0 | Herbicidal rating CYPSE (CYPSE (Flatsedge) [5]; rate 0.1250 kg/ha): 2.0 | Herbicidal rating CYPSE (CYPSE (Flatsedge) [5]; rate 0.2500 kg/ha): 7.0 | Preemergence herbicidal rating IPOHE ([6]; rate 0.0156 kg/ha): 0.0 | Preemergence herbicidal rating IPOHE ([6]; rate 0.0313 kg/ha): 0.0 | Preemergence herbicidal rating IPOHE ([6]; rate 0.0625 kg/ha): 7.0 | Preemergence herbicidal rating IPOHE ([6]; rate 0.1250 kg/ha): 9.0 | Preemergence herbicidal rating IPOHE ([6]; rate 0.2500 kg/ha): 9.0 | Herbicidal rating CYPIR (CYPIR (Rice Flatsedge); 0.0313 kg/ha): 0.0 | Herbicidal rating CYPIR (CYPIR (Rice Flatsedge); 0.0625 kg/ha): 0.0 | Herbicidal rating CYPIR (CYPIR (Rice Flatsedge); 0.1250 kg/ha): 0.0 | Herbicidal rating CYPIR (CYPIR (Rice Flatsedge); 0.2500 kg/ha): 4.0 | Preemergence herbicidal rating ZEAMX (ZEAMX (Corn, Field) [7]; rate 0.0156 kg/ha): 0.0 | Preemergence herbicidal rating ZEAMX (ZEAMX (Corn, Field) [7]; rate 0.0313 kg/ha): 0.0 | Preemergence herbicidal rating ZEAMX (ZEAMX (Corn, Field) [7]; rate 0.0625 kg/ha): 1.0 | Preemergence herbicidal rating ZEAMX (ZEAMX (Corn, Field) [7]; rate 0.1250 kg/ha): 0.0 | Preemergence herbicidal rating ZEAMX (ZEAMX (Corn, Field) [7]; rate 0.2500 kg/ha): 2.0 | Postemergence herbicidal rating CASOB (CASOB (Sicklepod); Rate 0.0158 kg/ha): 1.0 | Postemergence herbicidal rating CASOB (CASOB (Sicklepod); Rate 0.0315 kg/ha): 1.0 | Postemergence herbicidal rating CASOB (CASOB (Sicklepod); Rate 0.0630 kg/ha): 5.0 | Preemergence herbicidal rating ORYSAT (ORYSAT (Rice, Tebonnet); rate 0.0156 kg/ha): 0.0 | Preemergence herbicidal rating ORYSAT (ORYSAT (Rice, Tebonnet); rate 0.0313 kg/ha): 0.0 | Preemergence herbicidal rating ORYSAT (ORYSAT (Rice, Tebonnet); rate 0.0625 kg/ha): 0.0 | Preemergence herbicidal rating ORYSAT (ORYSAT (Rice, Tebonnet); rate 0.1250 kg/ha): 0.0 | Preemergence herbicidal rating ORYSAT (ORYSAT (Rice, Tebonnet); rate 0.2500 kg/ha): 0.0 | Herbicidal rating ECHORC ([8]; 0.0313 kg/ha): 3.0 | Herbicidal rating ECHORC ([8]; 0.0625 kg/ha): 4.0 | Herbicidal rating ECHORC ([8]; 0.1250 kg/ha): 6.0 | Herbicidal rating ECHORC ([8]; 0.2500 kg/ha): 7.0 | Preemergence herbicidal rating CHEAL ([9]; rate 0.0156 kg/ha): 0.0 | Preemergence herbicidal rating CHEAL ([9]; rate 0.0313 kg/ha): 4.0 | Preemergence herbicidal rating CHEAL ([9]; rate 0.0625 kg/ha): 9.0 | Preemergence herbicidal rating CHEAL ([9]; rate 0.1250 kg/ha): 9.0 | Preemergence herbicidal rating CHEAL ([9]; rate 0.2500 kg/ha): 9.0
